What was measured:
FaDu cells = assay: comet assay for DNA damage in FaDu cells; type: cell-based, human; settings: 1 μM BrdU with 1 Gy of 14 keV NR, versus BrdU-RS2000 or RS2000
Protocol: Referring to FIGS. 22A and 22B, comet assays for evaluating DNA damages induced by BrdU, RS2000, BrdU with RS2000, NR, and NR with BrdU are provided in accordance with an exemplary embodiment of the present disclosure. Comet assays are commonly used to measure DNA single-strand breaks […] and double-strand breaks (DSBs). FaDu cells (10^4 cells/10 μl of PBS) are mixed with 75 μl of 0.75% low-melting agarose. The mixture is then immediately embedded onto a glass slide pre-coated with 2 layers of 1% agarose, and spread evenly with a coverslip. The mixture on the glass slide is solidified on ice for 5 minutes. 2 additional layers of 1% agarose are then coated on the cell layer. The cell is then soaked with cell lysis buffer (10 mM Tris, 2.5 M NaCl, 100 mM Na2-EDTA, and 1% Triton X-100, pH 10.0) at 4° C. for 1 hour. The slide is then placed horizontally in an electrophoretic apparatus with alkaline electrophoretic buffer ([…] and 1 mM Na2-EDTA, pH >12.0) for 60 minutes, and then electrophoresis is conducted in the apparatus for 30 minutes at 25 V and 300 mA. After the electrophoresis has ended, the slide is soaked with neutralization buffer (0.4 M Tris, pH 7.4) for 10 minutes. The cells on the slide are stained with propidium iodide (PI) of 20 μg/ml and subjected to microscopic examination. […] FIG. 22B is a quantified result of FIG. 22A. […]

γH2AX = assay: Western blotting for pATM, γH2AX and c-CASP3 in FaDu cells; type: cell-based, human; settings: 10 μM IdU and 2 Gy of NR, 30 minutes after irradiation, among all treatments
Protocol: To investigate the mechanism associated with the combination of IdU and NR in the Auger molecular therapy, molecular markers involving DNA damage and apoptosis are analyzed. In vitro FaDu cells are treated with 10 μM of IdU, and irradiated by 2Gy of NR or RS2000. 30 minutes after above treatments, FaDu cells are subjected to Western blot to determine the expression of several proteins relevant to DNA damage and apoptosis: phosphor-ATM (pATM) is a protein kinase activated by DNA double-strand-breaks (DSBs), and it phosphorylates several key factors to initiate DNA damage checkpoint and repair; γH2AX is one of the targets of pATM, and it forms the foundation of chromatin-based signaling cascades at DSBs sites, and it is widely considered as a highly specific and sensitive marker for quantitative evaluation of DSB; and CASP3 is a marker for increased apoptosis, wherein c-CASP3 is a cleaved CASP3 formed when apoptotic signals are present in the cell. The subcutaneous tumor also subjected to Western blot 3 days after the above treatments.
FIGS. 17A and 17B are results of Western blotting for protein expression levels of pATM, γH2AX, and c-CASP3, in accordance with exemplary embodiments of the present disclosure. FIG. 17A is the result at 30 minutes after irradiation, and FIG. 17B is the result at 3 days after irradiation, wherein β-ACTIN are served as an internal control in both figures. […]

## O=c1[nH]c(=O)n([C@H]2C[C@H](O)[C@@H](CO)O2)cc1Br [BrdU, bromodeoxyuridine]
FaDu cells
  relative DNA tail movement (comet assay): largest relative DNA tail movements

## O=c1[nH]c(=O)n([C@H]2C[C@H](O)[C@@H](CO)O2)cc1I [IdU, iododeoxyuridine]
γH2AX
  γH2AX expression (Western blot): most γH2AX expression
